# US20230119894A1, “THERAPEUTIC OR PROPHYLACTIC METHOD FOR DIABETES USING COMBINATION MEDICINE” (Japan Tobacco Inc., priority 2019, published 2023)
# Marks after values point to notes of the source that are not given here.
# Assays:
# glucose-loaded SD rats [1] = assay: OGTT (Oral Glucose Tolerance Test), Test Example 3; type: in vivo, rat; details: male SD rats; 3 mg/kg oral, 16 hours before glucose load; compared to vehicle, FIG. 2
# Description: Vehicle (0.5% methylcellulose solution), or Compound 1, Compound A, or Compound B (3 mg/kg each) suspended in a 0.5% methylcellulose solution was orally administered in 5 mL/kg to an about 4-hour-fasted male SD rat (8-week old, Nihon Charles River K.K., 5 cases for each group).
# Statistical analyses were based on Dunnett's multiple group test. The significance level was two-sided 5%.
# glucose-loaded SD rats [2] = assay: OGTT (Oral Glucose Tolerance Test), Test Example 2; type: in vivo, rat; details: male SD rats; 1, 3, or 10 mg/kg oral, 16 hours before glucose load; compared to vehicle, FIG. 1
# Description: Vehicle (0.5% methylcellulose solution) or Compound 1 (1, 3, or 10 mg/kg) suspended in a 0.5% methylcellulose solution was orally administered in 5 mL/kg to an about 4-hour-fasted male SD rat (8-week old, Nihon Charles River K.K., 6 cases for each group).
# Statistical analyses were based on Steel's multiple test. The significance level was two-sided 5%.
# [3] = system: Salmonella typhimurium TA1537; assay: Ames test (reverse mutation test), TA1537; details: TA1537
# Description: (§1) Metabolites 1, 3, and 5 and Metabolites C to H were each tested herein. The purpose of this test is to evaluate the potential of each metabolite to induce reverse mutations in the standard strains of Salmonella typhimurium (TA98, TA1537, TA100, and TA1535) and Escherichia coli (WP2uvrA), in either the presence or absence of a rat liver metabolic activation system (S9 mix).
# (§2) The solvent used herein was dimethyl sulfoxide (DMSO, 100 μL/plate).
# (§3) The test was performed by the pre-incubation method with or without S9 mix. When the test was performed without S9 mix, sodium phosphate buffer solution (pH 7.4) was added.
# (§4) 0.5 mL of S9 mix or 0.5 mL of 0.1 mol/L sodium phosphate buffer solution (pH 7.4), and 0.1 mL of the bacterial culture solution were added to a test tube containing 0.1 mL of the negative control formulation (DMSO alone), the metabolite, or the positive control formulation. The mixtures were pre-incubated at 37° C. for 20 minutes while shaking. After the pre-incubation period, 2 mL of top agar were added and the mixtures were vortex-mixed and seeded onto plates. Two plates per treatment were used. Each plate was incubated at 37±1° C. for 48 hours or more and the revertant colonies were counted. The mean number of revertant colonies for each treatment plate was then calculated. […] Evaluation was based on mean values with no statistical comparisons being used.
# Escherichia coli WP2uvrA = assay: Ames test (reverse mutation test), WP2uvrA; type: cell-based; details: WP2uvrA
# [4] = system: Salmonella typhimurium TA98; assay: Ames test (reverse mutation test), TA98; details: TA98
# Description: as §1, §2, §3, §4
# [5] = system: Salmonella typhimurium TA100; assay: Ames test (reverse mutation test), TA100; details: TA100
# Description: as §1, §2, §3, §4
# [6] = system: Salmonella typhimurium TA1535; assay: Ames test (reverse mutation test), TA1535
# Description: as §1, §2, §3, §4
smiles,measurement,setting,value
"C[C@H]1C(=O)NC[C@@H]1C(=O)Nc1cc(-c2cc(F)cc(OC(C)(C)C)c2)n(C(F)(F)F)n1 [Example 1, (3R,4R)—N-(5-(3-(tert-butoxy)-5-fluorophenyl)-1-(trifluoromethyl)-1H-pyrazol-3-yl)-4-methyl-5-oxopyrrolidine-3-carboxamide]","blood glucose level after the glucose load (Δ AUC 0-120 minutes, % of Vehicle)",glucose-loaded SD rats [1],significantly reduced
same,"blood glucose level after the glucose load (Δ AUC 0-120 minutes, % of Vehicle)",glucose-loaded SD rats [2],significantly reduced
CC(C)(C)Oc1cc(F)cc(-c2cc(N)nn2C(F)(F)F)c1 [Metabolite 1],Number of revertant colonies,"[3]; S9 mix +, 185 μg/plate",2*
same,Number of revertant colonies,"[3]; S9 mix +, 556 μg/plate",0*
same,Number of revertant colonies,"[3]; S9 mix +, 1667 μg/plate",0*
same,Number of revertant colonies,"[3]; S9 mix +, 5000 μg/plate",0*
same,Number of revertant colonies,"[3]; S9 mix −, 185 μg/plate",0*
same,Number of revertant colonies,"[3]; S9 mix −, 556 μg/plate",0*
same,Number of revertant colonies,"[3]; S9 mix −, 1667 μg/plate",0*
same,Number of revertant colonies,"[3]; S9 mix −, 5000 μg/plate",0*
same,Number of revertant colonies,"Escherichia coli WP2uvrA; S9 mix +, 185 μg/plate",16*
same,Number of revertant colonies,"Escherichia coli WP2uvrA; S9 mix +, 556 μg/plate",18*
same,Number of revertant colonies,"Escherichia coli WP2uvrA; S9 mix +, 1667 μg/plate",9*
same,Number of revertant colonies,"Escherichia coli WP2uvrA; S9 mix +, 5000 μg/plate",0*
same,Number of revertant colonies,"Escherichia coli WP2uvrA; S9 mix −, 185 μg/plate",15*
same,Number of revertant colonies,"Escherichia coli WP2uvrA; S9 mix −, 556 μg/plate",8*
same,Number of revertant colonies,"Escherichia coli WP2uvrA; S9 mix −, 1667 μg/plate",5*
same,Number of revertant colonies,"Escherichia coli WP2uvrA; S9 mix −, 5000 μg/plate",0*
same,Number of revertant colonies,"[4]; S9 mix +, 185 μg/plate",16*
same,Number of revertant colonies,"[4]; S9 mix +, 556 μg/plate",15*
same,Number of revertant colonies,"[4]; S9 mix +, 1667 μg/plate",13*
same,Number of revertant colonies,"[4]; S9 mix +, 5000 μg/plate",13*
same,Number of revertant colonies,"[4]; S9 mix −, 185 μg/plate",9*
same,Number of revertant colonies,"[4]; S9 mix −, 556 μg/plate",0*
same,Number of revertant colonies,"[4]; S9 mix −, 1667 μg/plate",0*
same,Number of revertant colonies,"[4]; S9 mix −, 5000 μg/plate",0*
same,Number of revertant colonies,"[5]; S9 mix +, 185 μg/plate",78*
same,Number of revertant colonies,"[5]; S9 mix +, 556 μg/plate",59*
same,Number of revertant colonies,"[5]; S9 mix +, 1667 μg/plate",50*
same,Number of revertant colonies,"[5]; S9 mix +, 5000 μg/plate",52*
same,Number of revertant colonies,"[5]; S9 mix −, 185 μg/plate",38*
same,Number of revertant colonies,"[5]; S9 mix −, 556 μg/plate",0*
same,Number of revertant colonies,"[5]; S9 mix −, 1667 μg/plate",0*
same,Number of revertant colonies,"[5]; S9 mix −, 5000 μg/plate",0*
same,Number of revertant colonies,"[6]; S9 mix +, 185 μg/plate",5*
same,Number of revertant colonies,"[6]; S9 mix +, 556 μg/plate",4*
same,Number of revertant colonies,"[6]; S9 mix +, 1667 μg/plate",4*
same,Number of revertant colonies,"[6]; S9 mix +, 5000 μg/plate",2*
same,Number of revertant colonies,"[6]; S9 mix −, 185 μg/plate",0*
same,Number of revertant colonies,"[6]; S9 mix −, 556 μg/plate",0*
same,Number of revertant colonies,"[6]; S9 mix −, 1667 μg/plate",0*
same,Number of revertant colonies,"[6]; S9 mix −, 5000 μg/plate",0*
Nc1cc(-c2cc(F)cc(OC(F)(F)F)c2)n(-c2cncc(F)c2)n1 [Metabolite 3],Number of revertant colonies,"[3]; S9 mix +, 6.9 μg/plate",12
same,Number of revertant colonies,"[3]; S9 mix +, 21 μg/plate",13
same,Number of revertant colonies,"[3]; S9 mix +, 62 μg/plate",12
same,Number of revertant colonies,"[3]; S9 mix +, 185 μg/plate",12
same,Number of revertant colonies,"[3]; S9 mix +, 556 μg/plate",8*
same,Number of revertant colonies,"[3]; S9 mix +, 1667 μg/plate",0*†
same,Number of revertant colonies,"[3]; S9 mix +, 5000 μg/plate",1*†
same,Number of revertant colonies,"[3]; S9 mix −, 6.9 μg/plate",9
same,Number of revertant colonies,"[3]; S9 mix −, 21 μg/plate",8
same,Number of revertant colonies,"[3]; S9 mix −, 62 μg/plate",8
same,Number of revertant colonies,"[3]; S9 mix −, 185 μg/plate",8
same,Number of revertant colonies,"[3]; S9 mix −, 556 μg/plate",3*
same,Number of revertant colonies,"[3]; S9 mix −, 1667 μg/plate",3*†
same,Number of revertant colonies,"[3]; S9 mix −, 5000 μg/plate",2*†
same,Number of revertant colonies,"Escherichia coli WP2uvrA; S9 mix +, 6.9 μg/plate",19
same,Number of revertant colonies,"Escherichia coli WP2uvrA; S9 mix +, 21 μg/plate",19
same,Number of revertant colonies,"Escherichia coli WP2uvrA; S9 mix +, 62 μg/plate",19
same,Number of revertant colonies,"Escherichia coli WP2uvrA; S9 mix +, 185 μg/plate",19
same,Number of revertant colonies,"Escherichia coli WP2uvrA; S9 mix +, 556 μg/plate",17*
same,Number of revertant colonies,"Escherichia coli WP2uvrA; S9 mix +, 1667 μg/plate",14*†
same,Number of revertant colonies,"Escherichia coli WP2uvrA; S9 mix +, 5000 μg/plate",9*†
same,Number of revertant colonies,"Escherichia coli WP2uvrA; S9 mix −, 6.9 μg/plate",21
same,Number of revertant colonies,"Escherichia coli WP2uvrA; S9 mix −, 21 μg/plate",16
same,Number of revertant colonies,"Escherichia coli WP2uvrA; S9 mix −, 62 μg/plate",23
same,Number of revertant colonies,"Escherichia coli WP2uvrA; S9 mix −, 185 μg/plate",20
same,Number of revertant colonies,"Escherichia coli WP2uvrA; S9 mix −, 556 μg/plate",16*
same,Number of revertant colonies,"Escherichia coli WP2uvrA; S9 mix −, 1667 μg/plate",13*†
same,Number of revertant colonies,"Escherichia coli WP2uvrA; S9 mix −, 5000 μg/plate",8*†
same,Number of revertant colonies,"[4]; S9 mix +, 6.9 μg/plate",35
same,Number of revertant colonies,"[4]; S9 mix +, 21 μg/plate",37
same,Number of revertant colonies,"[4]; S9 mix +, 62 μg/plate",35
same,Number of revertant colonies,"[4]; S9 mix +, 185 μg/plate",36
same,Number of revertant colonies,"[4]; S9 mix +, 556 μg/plate",22*
same,Number of revertant colonies,"[4]; S9 mix +, 1667 μg/plate",20*†
same,Number of revertant colonies,"[4]; S9 mix +, 5000 μg/plate",16*†
same,Number of revertant colonies,"[4]; S9 mix −, 6.9 μg/plate",30
same,Number of revertant colonies,"[4]; S9 mix −, 21 μg/plate",30
same,Number of revertant colonies,"[4]; S9 mix −, 62 μg/plate",28
same,Number of revertant colonies,"[4]; S9 mix −, 185 μg/plate",28
same,Number of revertant colonies,"[4]; S9 mix −, 556 μg/plate",12*
same,Number of revertant colonies,"[4]; S9 mix −, 1667 μg/plate",9*†
same,Number of revertant colonies,"[4]; S9 mix −, 5000 μg/plate",7*†
same,Number of revertant colonies,"[5]; S9 mix +, 6.9 μg/plate",109
same,Number of revertant colonies,"[5]; S9 mix +, 21 μg/plate",119
same,Number of revertant colonies,"[5]; S9 mix +, 62 μg/plate",118
same,Number of revertant colonies,"[5]; S9 mix +, 185 μg/plate",125
same,Number of revertant colonies,"[5]; S9 mix +, 556 μg/plate",115*†
same,Number of revertant colonies,"[5]; S9 mix +, 1667 μg/plate",97*†
same,Number of revertant colonies,"[5]; S9 mix +, 5000 μg/plate",92*†
same,Number of revertant colonies,"[5]; S9 mix −, 6.9 μg/plate",89
same,Number of revertant colonies,"[5]; S9 mix −, 21 μg/plate",90
same,Number of revertant colonies,"[5]; S9 mix −, 62 μg/plate",87
same,Number of revertant colonies,"[5]; S9 mix −, 185 μg/plate",86
same,Number of revertant colonies,"[5]; S9 mix −, 556 μg/plate",6*
same,Number of revertant colonies,"[5]; S9 mix −, 1667 μg/plate",5*†
same,Number of revertant colonies,"[5]; S9 mix −, 5000 μg/plate",5*†
same,Number of revertant colonies,"[6]; S9 mix +, 6.9 μg/plate",8
same,Number of revertant colonies,"[6]; S9 mix +, 21 μg/plate",9
same,Number of revertant colonies,"[6]; S9 mix +, 62 μg/plate",11
same,Number of revertant colonies,"[6]; S9 mix +, 185 μg/plate",9
same,Number of revertant colonies,"[6]; S9 mix +, 556 μg/plate",4*
same,Number of revertant colonies,"[6]; S9 mix +, 1667 μg/plate",3*†
same,Number of revertant colonies,"[6]; S9 mix +, 5000 μg/plate",1*†
same,Number of revertant colonies,"[6]; S9 mix −, 6.9 μg/plate",9
same,Number of revertant colonies,"[6]; S9 mix −, 21 μg/plate",11
same,Number of revertant colonies,"[6]; S9 mix −, 62 μg/plate",10
same,Number of revertant colonies,"[6]; S9 mix −, 185 μg/plate",8
same,Number of revertant colonies,"[6]; S9 mix −, 556 μg/plate",8*
same,Number of revertant colonies,"[6]; S9 mix −, 1667 μg/plate",0*†
same,Number of revertant colonies,"[6]; S9 mix −, 5000 μg/plate",0*†
